# Patent US20230265151A1, “GIP/GLP1 CO-AGONIST COMPOUNDS” (priority 2020, published 2023)
# Read-outs that look alike come from different tables or passages of the source. *1 amine or outer side, *2 acyl side, *3 side chain or, on linkers, in order; H or OH if unused. Where a SMILES comes first, the peptide text is derived from it. Side-chain parts run from the residue outwards. [ ]: non-standard residue; d: D form. The star is where a group is joined. Decanoyl(10-(4-HOOC-PhO)) = O=C(O)c1ccc(OCCCCCCCCCC(=O)*)cc1; αMePhe(2-F) = C[C@](N)(Cc1ccccc1F)C(=O)O; γGlu = O=C(O)[C@H](CCC(=O)[*:2])N[*:1]; αMeY = C[C@](N)(Cc1ccc(O)cc1)C(=O)O; αMeL = CC(C)C[C@](C)(N)C(=O)O; Orn = NCCC[C@H](N)C(=O)O; AEEA = NCCOCCOCC(=O)O; Aib = CC(C)(N)C(=O)O
# What was measured:
# Type in all cases: cell-based
# [1] = molecular target: T1, hGIPR (Homo sapiens, UniProt P48546); assay: Functional cAMP formation (HTRF) in HEK-293 clonal cells expressing hGIPR, 0.1% bovine casein, without or with 1.0% human serum albumin; conditions: for Emax: HEK293, read-out: hGIPR Emax, % ± SEM, cAMP, 37° C., 0.1% bovine casein and 1.0% human serum albumin, percent of maximal response to GIP(1-42)NH2; for EC50: hGIPR EC50, nM (SEM, n), cAMP, 37° C.
# T1 construct: expressed in transfected cells
# T1 sequence (P48546 22-466): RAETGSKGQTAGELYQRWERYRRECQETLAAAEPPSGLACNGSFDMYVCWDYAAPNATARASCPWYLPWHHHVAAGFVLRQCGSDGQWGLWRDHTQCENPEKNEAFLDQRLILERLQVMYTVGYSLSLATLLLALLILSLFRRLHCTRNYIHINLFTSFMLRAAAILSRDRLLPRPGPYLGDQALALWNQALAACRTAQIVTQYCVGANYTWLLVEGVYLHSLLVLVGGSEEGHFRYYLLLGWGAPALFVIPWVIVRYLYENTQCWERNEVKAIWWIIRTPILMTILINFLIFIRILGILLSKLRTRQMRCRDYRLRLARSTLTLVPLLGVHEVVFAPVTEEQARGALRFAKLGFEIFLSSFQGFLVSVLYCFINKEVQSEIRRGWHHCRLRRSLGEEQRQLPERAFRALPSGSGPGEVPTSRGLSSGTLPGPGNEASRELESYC
# How it was run: (§1)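 Readings of the HTRF 665/620 nm ratio, which falls as cAMP rises, were converted to nM cAMP using a standard curve after 30 min peptide exposure at 37° C.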
# [2] = molecular target: T2, hGCGR (Homo sapiens, UniProt P47871); assay: Functional cAMP formation (HTRF) in HEK-293 clonal cells expressing hGCGR, 0.1% bovine casein, without or with 1.0% human serum albumin; conditions: hGCGR EC50, nM (SEM, n), cAMP, 37° C.
# T2 construct: expressed in transfected cells
# How it was run: as §1
# [3] = molecular target: hGLP-1R (Homo sapiens, UniProt P43220); assay: Functional cAMP formation (HTRF) in HEK-293 clonal cells expressing hGLP-1R, 0.1% bovine casein, without or with 1.0% human serum albumin; parameters: expressed in transfected cells; conditions: for Emax: percent of maximal response to GLP-1(7-36)NH2; for EC50: hGLP-1R EC50, nM (SEM, n), cAMP, 37° C.
# How it was run: as §1
# [4] = 0.1% bovine casein (no human serum albumin), geometric mean
# [5] = 0.1% bovine casein and 1.0% human serum albumin, geometric mean (SEM, n)
# [6] = HEK293, read-out: hGLP-1R Emax, % ± SEM, cAMP, 37° C., 0.1% bovine casein and 1.0% human serum albumin
# hGLP-1R, sequence (P43220 24-463): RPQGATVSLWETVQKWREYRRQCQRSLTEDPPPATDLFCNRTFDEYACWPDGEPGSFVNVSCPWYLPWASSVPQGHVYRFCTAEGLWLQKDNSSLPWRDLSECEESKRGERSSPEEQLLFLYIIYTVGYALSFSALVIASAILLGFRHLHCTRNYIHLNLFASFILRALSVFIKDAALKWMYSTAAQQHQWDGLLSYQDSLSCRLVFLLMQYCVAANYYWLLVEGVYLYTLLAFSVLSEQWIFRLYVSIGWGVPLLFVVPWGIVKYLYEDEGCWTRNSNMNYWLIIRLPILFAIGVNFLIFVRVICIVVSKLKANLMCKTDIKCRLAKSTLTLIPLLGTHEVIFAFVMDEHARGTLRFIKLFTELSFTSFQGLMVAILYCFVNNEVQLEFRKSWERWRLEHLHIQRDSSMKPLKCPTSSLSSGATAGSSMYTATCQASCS
# T2 sequence (P47871 26-477): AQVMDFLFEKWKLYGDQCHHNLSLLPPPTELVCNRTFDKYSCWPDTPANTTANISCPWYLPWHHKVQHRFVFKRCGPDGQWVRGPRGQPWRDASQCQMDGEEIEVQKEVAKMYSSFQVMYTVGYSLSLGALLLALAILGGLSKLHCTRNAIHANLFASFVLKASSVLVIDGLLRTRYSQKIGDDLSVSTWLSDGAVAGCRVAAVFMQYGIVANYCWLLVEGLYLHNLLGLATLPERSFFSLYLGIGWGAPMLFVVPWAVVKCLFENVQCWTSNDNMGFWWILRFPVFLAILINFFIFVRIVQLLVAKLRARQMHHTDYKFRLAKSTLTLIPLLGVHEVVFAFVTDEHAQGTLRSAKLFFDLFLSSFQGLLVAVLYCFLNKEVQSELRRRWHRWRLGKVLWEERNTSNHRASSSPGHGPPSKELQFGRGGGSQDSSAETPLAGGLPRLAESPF
Structure (SMILES),Emax [1],"EC50 [1, 4]","EC50 [2, 4]","EC50 [2, 5]","Emax [3, 6]","EC50 [3, 4]","EC50 [1, 5]","Emax ([3]; HEK293, read-out: hGLP-1R Emax, % ± SEM, cAMP, 37° C., 0.1% bovine casein, arithmetic mean)","EC50 [3, 5]"
CC[C@H](C)[C@H](NC(=O)[C@H](CC(C)C)NC(=O)[C@](C)(Cc1ccc(O)cc1)NC(=O)[C@@H](CCC(=O)O)NC(=O)[C@@H](NC(=O)[C@H](Cc1ccccc1)NC(=O)[C@H](CCCCNC(=O)COCCOCCNC(=O)COCCOCCNC(=O)CC[C@H](NC(=O)CCCCCCCCCOc1ccc(C(=O)O)cc1)C(=O)O)NC(=O)C(C)(C)NC(=O)[C@H](CCC(N)=O)NC(=O)[C@H](C)NC(=O)[C@H](CCCCNC(=O)COCCOCCNC(=O)COCCOCCNC(=O)CC[C@H](NC(=O)CCCCCCCCCOc1ccc(C(=O)O)cc1)C(=O)O)NC(=O)[C@H](CCCN)NC(=O)[C@H](CC(=O)O)NC(=O)[C@H](CC(C)C)NC(=O)[C@](C)(CC(C)C)NC(=O)[C@@H](NC(=O)C(C)(C)NC(=O)[C@H](Cc1ccc(O)cc1)NC(=O)[C@H](CC(=O)O)NC(=O)[C@H](CO)NC(=O)[C@@H](NC(=O)[C@](C)(Cc1ccccc1F)NC(=O)[C@@H](NC(=O)CNC(=O)[C@H](CCC(=O)O)NC(=O)C(C)(C)NC(=O)[C@@H](N)Cc1ccc(O)cc1)[C@@H](C)O)[C@@H](C)O)[C@@H](C)CC)[C@@H](C)CC)C(=O)N[C@@H](CCCN)C(=O)NCC(=O)NCC(=O)N1CCC[C@H]1C(=O)N[C@@H](CO)C(=O)N[C@@H](CO)C(=O)NCC(=O)N[C@@H](C)C(=O)N1CCC[C@H]1C(=O)N1CCC[C@H]1C(=O)N1CCC[C@H]1C(=O)N[C@@H](CO)C(N)=O [Example 409] (H-Y[Aib]EGT[αMePhe(2-F)]TSDY[Aib]I[αMeL]LD[Orn]K([AEEA-AEEA-γGlu-Decanoyl(10-(4-HOOC-PhO))])AQ[Aib]K([AEEA-AEEA-γGlu-Decanoyl(10-(4-HOOC-PhO))])FI[dE][αMeY]LI[Orn]GGPSSGAPPPS-NH2; N-terminus assumed),84%,0.00928 nM,> 9950 nM,> 9950 nM,97.7%,0.188 nM,–,–,–
CC[C@H](C)[C@H](NC(=O)[C@H](CC(C)C)NC(=O)[C@](C)(Cc1ccc(O)cc1)NC(=O)[C@@H](CCC(=O)O)NC(=O)[C@@H](NC(=O)[C@H](Cc1ccccc1)NC(=O)[C@H](CCCCNC(=O)COCCOCCNC(=O)COCCOCCNC(=O)CC[C@H](NC(=O)CCCCCCCCCOc1ccc(C(=O)O)cc1)C(=O)O)NC(=O)C(C)(C)NC(=O)[C@H](CCC(N)=O)NC(=O)[C@H](C)NC(=O)[C@H](CCCCNC(=O)COCCOCCNC(=O)COCCOCCNC(=O)CC[C@H](NC(=O)CCCCCCCCCOc1ccc(C(=O)O)cc1)C(=O)O)NC(=O)[C@H](CCCN)NC(=O)[C@H](CC(=O)O)NC(=O)[C@H](CC(C)C)NC(=O)[C@](C)(CC(C)C)NC(=O)[C@@H](NC(=O)C(C)(C)NC(=O)[C@@H](NC(=O)[C@H](CC(=O)O)NC(=O)[C@H](CO)NC(=O)[C@@H](NC(=O)[C@](C)(Cc1ccccc1F)NC(=O)[C@@H](NC(=O)CNC(=O)[C@H](CCC(=O)O)NC(=O)C(C)(C)NC(=O)[C@@H](N)Cc1ccc(O)cc1)[C@@H](C)O)[C@@H](C)O)C(C)C)[C@@H](C)CC)[C@@H](C)CC)C(=O)N[C@@H](CCCN)C(=O)NCC(=O)NCC(=O)N1CCC[C@H]1C(=O)N[C@@H](CO)C(=O)N[C@@H](CO)C(=O)NCC(=O)N[C@@H](C)C(=O)N1CCC[C@H]1C(=O)N1CCC[C@H]1C(=O)N1CCC[C@H]1C(=O)N[C@@H](CO)C(N)=O [Example 410] (H-Y[Aib]EGT[αMePhe(2-F)]TSDV[Aib]I[αMeL]LD[Orn]K([AEEA-AEEA-γGlu-Decanoyl(10-(4-HOOC-PhO))])AQ[Aib]K([AEEA-AEEA-γGlu-Decanoyl(10-(4-HOOC-PhO))])FI[dE][αMeY]LI[Orn]GGPSSGAPPPS-NH2),86.4%,0.0118 nM,> 9950 nM,> 9950 nM,93.1%,0.251 nM,1.28 nM,94%,11 nM
